In paper PMC4018390, “Important Role of CYP2J2 in Protein Kinase Inhibitor Degradation: A Possible Role in Intratumor Drug Disposition and Resistance” (PLoS ONE, 2014):
Where two headings read alike, the source gives them in different places.

Assays:
CYP1A1 [1] = molecular target: T1, CYP1A1 (Homo sapiens, UniProt P04798); assay: TKI disappearance in microsomal incubations with cDNA expressed CYP1A1; format: in vitro ADME; design: purchased BD Bioscience (Belgium), BD Gentest; host or cells: insect cells
T1 sequence (P04798 1-512): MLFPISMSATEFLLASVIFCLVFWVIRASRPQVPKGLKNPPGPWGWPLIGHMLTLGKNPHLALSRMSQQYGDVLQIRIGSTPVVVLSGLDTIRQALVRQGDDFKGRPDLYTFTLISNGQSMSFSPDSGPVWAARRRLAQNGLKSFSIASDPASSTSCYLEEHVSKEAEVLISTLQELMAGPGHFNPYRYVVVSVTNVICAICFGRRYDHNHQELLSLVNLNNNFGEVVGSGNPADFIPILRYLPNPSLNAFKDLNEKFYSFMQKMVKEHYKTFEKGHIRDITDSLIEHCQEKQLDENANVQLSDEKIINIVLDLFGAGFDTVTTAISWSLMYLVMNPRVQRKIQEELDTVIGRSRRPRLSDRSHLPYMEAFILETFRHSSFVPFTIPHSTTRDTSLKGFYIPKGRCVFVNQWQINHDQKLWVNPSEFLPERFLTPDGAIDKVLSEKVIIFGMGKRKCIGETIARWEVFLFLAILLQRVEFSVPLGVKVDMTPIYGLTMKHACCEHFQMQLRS
Description: (§1) The disappearance rate was calculated after 10 min (see Table 1 ) taking into account the percent of TKI removed from the incubation (0.25 nmole of TKI and 20 pmoles of CYP in 100 µL) and are expressed in (nmole of degraded TKI/(nanomole of CYP×min)).
(§2) Protein pellets were discarded.

CYP1B1 [2] = molecular target: T2, CYP1B1 (Homo sapiens, UniProt Q16678); assay: TKI disappearance in culture media of HepG2 cells infected with adenovirus expressing CYP1B1; settings: up to 72 hours, result in words
T2 sequence (Q16678 1-543): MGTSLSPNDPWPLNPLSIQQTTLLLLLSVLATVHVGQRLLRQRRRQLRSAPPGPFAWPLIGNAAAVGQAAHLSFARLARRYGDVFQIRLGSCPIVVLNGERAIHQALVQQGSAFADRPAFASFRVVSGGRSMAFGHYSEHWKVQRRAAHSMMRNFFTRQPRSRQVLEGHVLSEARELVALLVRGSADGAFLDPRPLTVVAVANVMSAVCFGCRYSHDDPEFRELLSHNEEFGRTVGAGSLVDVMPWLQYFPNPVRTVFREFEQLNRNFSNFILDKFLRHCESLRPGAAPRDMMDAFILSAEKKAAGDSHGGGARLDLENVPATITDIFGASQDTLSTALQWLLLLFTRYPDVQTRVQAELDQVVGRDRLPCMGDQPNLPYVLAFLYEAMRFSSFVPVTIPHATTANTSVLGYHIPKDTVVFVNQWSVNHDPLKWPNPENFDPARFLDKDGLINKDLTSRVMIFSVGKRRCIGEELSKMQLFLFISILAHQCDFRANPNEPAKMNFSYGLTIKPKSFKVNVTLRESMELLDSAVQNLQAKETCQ

CYP1B1 [3] = molecular target: T2, CYP1B1; assay: TKI disappearance in microsomal incubations with cDNA expressed CYP1B1; format: in vitro ADME; design: purchased BD Bioscience (Belgium), BD Gentest; host or cells: insect cells; settings: TKI 2.5 µM at T = 0, first 10 minutes, 20 picomoles of CYP
Description: as §1, §2

CYP2J2 [4] = settings: approved drugs identified as CYP2J2 inhibitors; cited from earlier work
CYP2J2 [5] = molecular target: T3, CYP2J2 (Homo sapiens, UniProt P51589); assay: TKI disappearance in culture media of HepG2 cells infected with adenovirus expressing CYP2J2; settings: up to 72 hours, result in words
T3 sequence (P51589 1-502): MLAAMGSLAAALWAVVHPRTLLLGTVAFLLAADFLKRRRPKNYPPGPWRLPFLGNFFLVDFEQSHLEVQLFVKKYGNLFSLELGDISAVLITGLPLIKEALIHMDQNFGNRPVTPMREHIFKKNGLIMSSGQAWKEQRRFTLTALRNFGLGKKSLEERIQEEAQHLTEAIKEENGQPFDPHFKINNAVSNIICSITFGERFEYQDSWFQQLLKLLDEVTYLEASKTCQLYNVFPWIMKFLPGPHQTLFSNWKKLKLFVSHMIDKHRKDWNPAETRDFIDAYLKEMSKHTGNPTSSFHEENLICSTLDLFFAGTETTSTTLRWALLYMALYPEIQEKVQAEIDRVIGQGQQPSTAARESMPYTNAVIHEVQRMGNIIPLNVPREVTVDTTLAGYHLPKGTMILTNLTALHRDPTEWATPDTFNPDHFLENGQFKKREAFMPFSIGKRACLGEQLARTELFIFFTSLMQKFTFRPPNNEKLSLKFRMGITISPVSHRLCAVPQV
From the text: as §2

CYP3A4 [6] = molecular target: T4, CYP3A4 (Homo sapiens, UniProt P08684); settings: 2.5 µM, pH 7.4; for Disappearance rate in microsomal incubations: 10 min; for TKI levels removed from incubations: 30 min
T4 sequence (P08684 whole entry): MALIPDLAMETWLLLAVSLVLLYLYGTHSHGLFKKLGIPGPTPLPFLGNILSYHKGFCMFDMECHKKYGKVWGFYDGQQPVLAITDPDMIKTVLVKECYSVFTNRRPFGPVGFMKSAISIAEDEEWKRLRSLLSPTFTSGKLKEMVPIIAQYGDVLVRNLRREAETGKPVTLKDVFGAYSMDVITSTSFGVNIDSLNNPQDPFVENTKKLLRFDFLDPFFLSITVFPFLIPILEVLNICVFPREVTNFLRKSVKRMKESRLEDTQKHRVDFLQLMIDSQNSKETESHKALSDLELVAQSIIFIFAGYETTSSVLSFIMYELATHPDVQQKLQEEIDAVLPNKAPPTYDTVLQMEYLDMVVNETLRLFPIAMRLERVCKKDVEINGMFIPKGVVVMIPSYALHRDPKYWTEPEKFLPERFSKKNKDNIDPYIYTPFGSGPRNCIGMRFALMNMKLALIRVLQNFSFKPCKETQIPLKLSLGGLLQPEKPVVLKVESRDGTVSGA
Description: as §1, §2

CYP2J2 [7] = molecular target: T3, CYP2J2; settings: 2.5 µM, pH 7.4; for Disappearance rate in microsomal incubations: 10 min; for TKI levels removed from incubations: 30 min
Description: as §1, §2

CYP3A4 [8] = molecular target: T4, CYP3A4; design: purchased BD Bioscience (Belgium), BD Gentest; host or cells: insect cells; method as in earlier work; settings: compared with CYP1A1 and 1B1, ref 22 (Kamath et al.); cited from earlier work
CYP1A1 [9] = molecular target: T1, CYP1A1; settings: HepG2 cells infected with CYP1A1 adenovirus; up to 72 hours; result in words
From the text: as §2

CYP1A1 [10] = molecular target: T1, CYP1A1; design: purchased BD Bioscience (Belgium), BD Gentest; host or cells: insect cells; method as in earlier work; settings: compared with CYP1B1 and 3A4, ref 22 (Kamath et al.); cited from earlier work
CYP1B1 [11] = molecular target: T2, CYP1B1; design: purchased BD Bioscience (Belgium), BD Gentest; host or cells: insect cells; method as in earlier work; settings: compared with CYP1A1 and 3A4, ref 22 (Kamath et al.); cited from earlier work
CYP1A1 [12] = molecular target: T1, CYP1A1; settings: read-out: Affinity Constant, Km, Km of the parent TKI (imatinib) for production of the labelled metabolite, values marked (*), previous published study ref 18; cited from earlier work
CYP1B1 [13] = molecular target: T2, CYP1B1; assay: Michaelis-Menten kinetics of TKI metabolite production, cDNA expressed CYP1B1 microsomes; settings: for Relative Intrinsic Clearance: Vmax/Km for production of the labelled metabolite, as fold difference of the intrinsic clearance of CYP3A4; for Km: read-out: Affinity Constant, Km, Km of the parent TKI for production of the labelled metabolite, 10 pmoles CYP, TKI 0.5-20 µM, 15 min
CYP1A1 [14] = molecular target: T1, CYP1A1; assay: Michaelis-Menten kinetics of TKI metabolite production, cDNA expressed CYP1A1 microsomes; settings: for Relative Intrinsic Clearance: Vmax/Km for production of the labelled metabolite, as fold difference of the intrinsic clearance of CYP3A4; for Km: read-out: Affinity Constant, Km, Km of the parent TKI for production of the labelled metabolite, 10 pmoles CYP, TKI 0.5-20 µM, 15 min
CYP2J2 [15] = molecular target: T3, CYP2J2; assay: Michaelis-Menten kinetics of TKI metabolite production, cDNA expressed CYP2J2 microsomes; settings: for Km: read-out: Affinity Constant, Km, Km of the parent TKI for production of the labelled metabolite, 10 pmoles CYP, TKI 0.5-20 µM, 15 min
CYP3A4 [16] = molecular target: T4, CYP3A4; assay: Michaelis-Menten kinetics of TKI metabolite production, cDNA expressed CYP3A4 microsomes; settings: for Km: read-out: Affinity Constant, Km, CYP3A4, Km of the parent TKI for production of the labelled metabolite, 10 pmoles CYP, TKI 0.5-20 µM, 15 min
[17] = CYP1A1, TKI 2.5 µM at T = 0, first 10 minutes, 20 picomoles of CYP

CNC(=O)c1cc(Oc2ccc(NC(=O)Nc3ccc(Cl)c(C(F)(F)F)c3)cc2)ccn1 [Sorafenib, sorafenib]
Disappearance rate in microsomal incubations (CYP1A1 [1]; [17]): 0.4 nmoles of TKI degraded/(min×nmole of CYP)
TKI removal from HepG2 cell culture media (CYP1B1 [2]): very slowly by CYP1B1
Disappearance rate in microsomal incubations (CYP1B1 [3]): 0.0 nmoles of TKI degraded/(min×nmole of CYP)

Fc1ccc(C(c2ccc(F)cc2)N2CCN(C/C=C/c3ccccc3)CC2)cc1 [flunarizine]
CYP2J2 inhibition (CYP2J2 [4]): CYP2J2 inhibitors

Cc1cn(-c2cc(NC(=O)c3ccc(C)c(Nc4nccc(-c5cccnc5)n4)c3)cc(C(F)(F)F)c2)cn1 [Nilotinib, nilotinib]
Disappearance rate in microsomal incubations (CYP1A1 [1]; [17]): 0.2 nmoles of TKI degraded/(min×nmole of CYP)
TKI removal from HepG2 cell culture media (CYP2J2 [5]): mainly removed by CYP2J2
TKI removal from HepG2 cell culture media (CYP1B1 [2]): very slowly by CYP1B1
Disappearance rate in microsomal incubations (CYP3A4 [6]): 1.2 nmoles of TKI degraded/(min×nmole of CYP)
TKI levels removed from incubations (CYP3A4 [6]): more than 60%
Disappearance rate in microsomal incubations (CYP2J2 [7]): 0.7 nmoles of TKI degraded/(min×nmole of CYP)
TKI levels removed from incubations (CYP2J2 [7]): more than 60%
Disappearance rate in microsomal incubations (CYP1B1 [3]): 0.3 nmoles of TKI degraded/(min×nmole of CYP)

Cc1nc(Nc2ncc(C(=O)Nc3c(C)cccc3Cl)s2)cc(N2CCN(CCO)CC2)n1 [Dasatinib, dasatinib]
Degradation in similar microsomal incubations (CYP3A4 [8]): comparable rate of disappearance
TKI removal from HepG2 cell culture media (CYP1A1 [9]): CYP2J2>CYP1A1>CYP1B1
Degradation in similar microsomal incubations (CYP1A1 [10]): comparable rate of disappearance
Disappearance rate in microsomal incubations (CYP1A1 [1]; [17]): 0.9 nmoles of TKI degraded/(min×nmole of CYP)
TKI removal from HepG2 cell culture media (CYP2J2 [5]): CYP2J2>CYP1A1>CYP1B1
TKI removal from HepG2 cell culture media (CYP1B1 [2]): CYP2J2>CYP1A1>CYP1B1
Disappearance rate in microsomal incubations (CYP3A4 [6]): 1.2 nmoles of TKI degraded/(min×nmole of CYP)
TKI levels removed from incubations (CYP3A4 [6]): more than 60%
Disappearance rate in microsomal incubations (CYP2J2 [7]): 1.1 nmoles of TKI degraded/(min×nmole of CYP)
TKI levels removed from incubations (CYP2J2 [7]): more than 60%
Degradation in similar microsomal incubations (CYP1B1 [11]): comparable rate of disappearance
Disappearance rate in microsomal incubations (CYP1B1 [3]): 1.0 nmoles of TKI degraded/(min×nmole of CYP)

C#C[C@]1(O)CC[C@H]2[C@@H]3CCC4=Cc5oncc5C[C@]4(C)[C@H]3CC[C@@]21C [danazol]
CYP2J2 inhibition (CYP2J2 [4]): CYP2J2 inhibitors

CCN(CC)CCNC(=O)c1c(C)[nH]c(/C=C2\C(=O)Nc3ccc(F)cc32)c1C [Sunitinib, sunitinib]
TKI removal from HepG2 cell culture media (CYP1A1 [9]): equal rate for CYP1A1 and 2J2
Disappearance rate in microsomal incubations (CYP1A1 [1]): 0.6 nmoles of TKI degraded/(min×nmole of CYP)
Disappearance rate in microsomal incubations (CYP1B1 [3]): 0.1 nmoles of TKI degraded/(min×nmole of CYP)

Cc1ccc(NC(=O)c2ccc(CN3CCNCC3)cc2)cc1Nc1nccc(-c2cccnc2)n1 [N-demethyl-imatinib]
Km (CYP1A1 [12]): 7.6 µM

CCNCCNC(=O)c1c(C)[nH]c(/C=C2\C(=O)Nc3ccc(F)cc32)c1C [Z-deethyl-sunitinib #2, Z-deethyl-sunitinib]
Relative Intrinsic Clearance (CYP1B1 [13]): 0.1 fold diff.
Relative Intrinsic Clearance (CYP1A1 [14]): 0.2 fold diff.
Km (CYP1A1 [14]): 6.7 µM

Cc1nc(Nc2ncc(C(=O)Nc3c(C)cccc3Cl)s2)cc(N2CCNCC2)n1 [dehydroxyethyl-dasatinib]
Relative Intrinsic Clearance (CYP2J2 [15]; Vmax/Km for production of the labelled metabolite, as fold difference of the intrinsic clearance of CYP3A4): 0.5 fold diff.
Km (CYP2J2 [15]): 3.9 µM
Relative Intrinsic Clearance (CYP3A4 [16]; CYP3A4 (reference, set to 1.0), Vmax/Km for production of the labelled metabolite): 1.0 fold diff.
Km (CYP3A4 [16]): 71.4 µM
Relative Intrinsic Clearance (CYP1B1 [13]): 1.1 fold diff.
Km (CYP1B1 [13]): 2.2 µM
Relative Intrinsic Clearance (CYP1A1 [14]): 0.5 fold diff.
Km (CYP1A1 [14]): 4.7 µM

N-oxide-nilotinib [NO-nilotinib #1]
Km (CYP2J2 [15]): 0.8 µM
Km (CYP3A4 [16]): 27.6 µM
Km (CYP1A1 [14]): 3 µM

CCNCCNC(=O)c1c(C)[nH]c(/C=C2\C(=O)Nc3ccc(F)cc32)c1C [E-deethyl-sunitinib #1, E-deethyl-sunitinib]
Relative Intrinsic Clearance (CYP1B1 [13]): 0.1 fold diff.
Km (CYP1B1 [13]): 2.7 µM
Relative Intrinsic Clearance (CYP1A1 [14]): 0.1 fold diff.
Km (CYP1A1 [14]): 6.9 µM

CCCc1nc2c(C)cc(-c3nc4ccccc4n3C)cc2n1Cc1ccc(-c2ccccc2C(=O)O)cc1 [telmisartan]
CYP2J2 inhibition (CYP2J2 [4]): CYP2J2 inhibitors
